In PubChem BioAssay (NCI):
Several values for one entry are separate records, joined by “and”; a condition that tells them apart may be missing. Equal values may be shown once.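 Protocol summary: plate cells (96-well), add compound at 5 concentrations, incubate 48 h, interpolate endpoints linearly. The concentration for 50% growth inhibition is given as GI50. TGI is the concentration that stops growth completely.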

Tests used:
Experiment in all cases: growth of human tumour cells (NCI), 48 h
[1] = system: SF-295 CNS
[2] = system: CAKI-1 renal
[3] = system: SF-268 CNS
[4] = system: OVCAR-5 ovarian
[5] = system: ACHN renal
[6] = system: IGROV1 ovarian
[7] = system: NCI-H460 lung
[8] = system: SK-MEL-28 melanoma
[9] = system: HCT-116 colon
[10] = system: A498 renal

Row | Structure (SMILES) | GI50 [1] | TGI [1] | GI50 [2] | TGI [2] | GI50 [3] | TGI [3] [µM] | GI50 [4] | TGI [4] [µM] | GI50 [5] | TGI [5] | GI50 [6] | TGI [6] [µM] | GI50 [7] | TGI [7] [µM] | GI50 [8] | TGI [8] [µM] | GI50 [9] | TGI [9] [µM] | GI50 [10] | TGI [10]
1 | O=C(NCc1cccnc1)c1ccc([N+](=O)[O-])o1 | 2480 nM | 7.14 µM | 2390 nM | 13.3 µM | 4.83 µM | > 22.1 | 5.64 µM | 18 | 3560 nM | > 15.5 µM | 4520 nM | > 24.5 | 1620 nM | 3.73 | 2.83 µM | 7.58 | 1420 nM | 13.4 | 3250 nM | 9.02 µM
2 | C/C(=N\NC(=O)c1ccncc1)c1ccccc1O | 1380 nM | > 100 µM | 805 nM | 21.4 µM | 3.77 µM | > 100 | 4.87 µM | > 100 | 1640 nM | > 100 µM | 1800 nM | > 100 | 683 nM | > 100 | 20.9 µM | > 100 | 2320 nM | > 100 | 29000 nM | > 100 µM
3 | Cc1cc2c(SCc3ccccc3Cl)nc(N)nc2nc1C | – | > 100 µM | – | > 100 µM | – | > 100 | – | > 100 | – | > 100 µM | – | > 100 | – | > 100 | – | > 100 | – | > 100 | – | > 100 µM
4 | CC(C)c1nc(Cl)c(Cl)c(Cl)n1 | – | 29 µM | – | 11.8 µM | – | 9.29 | – | 17.7 | – | 2.51 µM | – | 19.5 | – | 48.4 | – | 40.5 | – | 14.2 | – | 52 µM
5 | CN1CCN(Cc2ccc(NC(=O)c3cncc(C#Cc4cnc5cccnn45)c3)cc2C(F)(F)F)CC1 | 1490 nM | 5.42 µM | 1440 nM | 5.22 µM | 1.19 µM | 2.81 | 1.27 µM | 6.04 | 1430 nM | 4.9 µM | 1300 nM | 5.59 | 1270 nM | 3.44 | 1.3 µM | 4.63 | 711 nM | 6.04 | 907 nM | 1.86 µM
6 | O=C1NC2(CCCCC2)C2=C1CCCCC2 | – | > 100 µM | – | > 100 µM | – | > 100 | – | > 100 | – | > 100 µM | – | > 100 | – | > 100 | – | > 100 | – | > 100 | – | > 100 µM
7 | CC(C)C12CCC3(CCC4C(C)(C(=O)O)CCCC4(C)C3C1)C(CN)C2 (stereo not given) | – | > 100 µM | – | > 100 µM | – | > 100 | – | 90.4 | – | > 100 µM | – | > 100 | – | 52.3 | – | > 100 | – | 34.2 | – | 98.4 µM
8 | O=C1COc2c(CCNCCN(C(=O)CCNCCc3ccc(Cl)c(Cl)c3)C3CCCCC3)ccc(O)c2N1 | 15700 nM | 30.8 µM | > 45900 nM | > 74.9 µM | 14.7 µM | 30.3 | 13.6 µM | 28.4 | 15200 nM | 29.1 µM | 15000 nM | 30.1 | 16500 nM | 31.1 | 14.8 µM | 29.3 | 14600 nM | 28.4 | 13900 nM | 28.4 µM
9 | CCC(=C(c1ccc(OCCN(CC)CC)cc1)c1ccc(OCCN(CC)CC)cc1)c1ccc(Cl)cc1 | 615 nM | 1.19 µM | 515 nM | 0.984 µM | 0.604 µM | 1.23 | 0.559 µM | 1.06 | 596 nM | 1.08 µM | 618 nM | 1.15 | 619 nM | 1.17 | 0.592 µM | 1.09 | 508 nM | 0.995 | 591 nM | 1.66 µM
10 | O=[N+]([O-])c1cccc(C2=NOC3CCCC23)c1 (stereo not given) | – | > 100 µM | – | > 100 µM | – | > 100 | – | > 100 | – | > 100 µM | – | > 100 | – | > 100 | – | > 100 | – | > 100 | – | > 100 µM
11 | CC(=O)Nc1ccc(C(=O)COc2cccc(/C=C3\CCc4ccccc4C3=O)c2)cc1 | 11200 nM | 39.6 µM | 21000 nM | 77.1 µM | 19 µM | 52.4 | 19.6 µM | 36.3 | 21900 nM | 78.4 µM | 21100 nM | 99.2 | 16100 nM | 37.1 | 20.3 µM | 37.8 | 4090 nM | 17.1 | 53600 nM | > 100 µM
12 | CS(=O)(=O)Nc1ccc(Nc2c3ccccc3nc3cc(Cl)ccc23)cc1 | 1070 nM | 15.3 µM | 397 nM | 8.68 µM | 2.57 µM | 19.6 | 4.99 µM | 22.3 | 343 nM | 9.57 µM | 1620 nM | 19 | 96.2 nM | 11 | 3.62 µM | 19.2 | 840 nM | 13.1 | 1150 nM | 7.22 µM
13 | Brc1ccc2c(c1)-c1ccccc1C1=NCCN12 | 984 nM | 4 µM | 1520 nM | 7.92 µM | 1.77 µM | 9.44 | 1.64 µM | 10.4 | 519 nM | 12.4 µM | 1610 nM | 11.2 | 399 nM | 2.71 | 1.8 µM | 3.63 | 403 nM | 10.2 | 866 nM | 2.36 µM
14 | COc1cc2nccc(Oc3ccc(NC(=O)C4(C(=O)Nc5ccc(F)cc5)CC4)cc3)c2cc1OC | 406 nM and 289 nM | > 10 µM and 4.95 µM | 5870 nM and 3610 nM | > 10 µM and 40.9 µM | > 10 µM and 4.54 µM | > 100 | > 10 µM and 3.5 µM | > 58.3 | > 10000 nM and 3880 nM | > 10 µM and 46.3 µM | 4510 nM and 2590 nM | > 31 | > 10000 nM and 3270 nM | > 94.6 | > 10 µM and 3.74 µM | > 79 | > 10000 nM and 3730 nM | > 41.5 | 1200 nM and 429 nM | > 10 µM and 3.43 µM
